In US20160024421A1, “IONIC LIQUIDS CONTAINING QUATERNARY PHOSPHONIUM CATIONS AND CARBOXYLATE ANIONS, AND THEIR USE AS LUBRICANT ADDITIVES” (UT-Battelle, LLC, priority 2014, published 2016):
Where two headings read alike, the source gives them in different places.

Columns and labels:
Assay type in all cases: physicochemical
Density = assay: Density
[1] = Kinematic viscosity (Petrolab Minivis II viscometer); set-up: unit not given here
Procedure: (§1) Thermogravimetric analysis (TGA) was performed on a thermogravimetric analyzer (TGA-2950, TA instruments) at a 10° C./min heating rate in air. […] The kinematic viscosities were measured on a […] viscometer.

[2] = Thermogravimetric analysis (decomposition temperature)
Procedure: as §1

Density @ 20° C. (Density; 20° C.) [g/mL] | Kinematic Viscosity @ 40° C. ([1]; 40° C.) | Decomp. temperature ([2]; TGA, 10° C./min heating rate in air) [°C] | Compound | Decomp. temperature [2] [°C] | Density @ 20° C. (Density) [g/mL] | Kinematic Viscosity @ 40° C. [1]
0.89 | solid | – | CCCCCCCCCC(=O)[O-].CCCCCCCCCCCCCC[P+](CCCCCC)(CCCCCC)CCCCCC [[P66614][C9H19COO]s] | – | – | –
– | – | – | trihexyltetradecylphosphonium 2-ethylhexanoate [[P66614][C7H15COO]b] | 308 | 0.88 | 184.8
– | – | – | trihexyltetradecylphosphonium octanoate [[P66614][C7H15COO]s] | 261 | – | 122.2
0.88 | – | 308 | CCCCCCCCCCCCCCCCCC(=O)[O-].CCCCCCCCCCCCCC[P+](CCCCCC)(CCCCCC)CCCCCC [[P66614][C17H35COO]s] | – | – | –
